{"source": "patent US5451522A", "about": "“Genes encoding and method of expressing an enzyme: phthalyl amidase” (priority 1994, dated 1995)", "molecular_target": "T1, phthalyl amidase (Xanthobacter agilis, UniProt P0C2Y0)", "T1 construct": "42-aa signal peptide removed", "T1 sequence (P0C2Y0 2-453)": "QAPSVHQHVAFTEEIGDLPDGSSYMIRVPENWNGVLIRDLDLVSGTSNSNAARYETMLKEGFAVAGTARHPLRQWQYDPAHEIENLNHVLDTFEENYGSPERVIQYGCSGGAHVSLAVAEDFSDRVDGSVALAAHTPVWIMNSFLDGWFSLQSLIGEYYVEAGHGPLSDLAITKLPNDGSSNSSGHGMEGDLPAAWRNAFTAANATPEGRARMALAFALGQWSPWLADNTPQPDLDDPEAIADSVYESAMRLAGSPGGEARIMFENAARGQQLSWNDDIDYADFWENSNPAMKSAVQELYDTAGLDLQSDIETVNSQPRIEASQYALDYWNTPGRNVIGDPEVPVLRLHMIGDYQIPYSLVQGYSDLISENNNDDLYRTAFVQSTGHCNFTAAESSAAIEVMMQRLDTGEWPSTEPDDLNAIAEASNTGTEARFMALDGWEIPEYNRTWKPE", "assay": "Influence of effectors and organic solvents on enzyme activity", "format": "biochemical", "conditions": "for remaining activity at 1 % / remaining activity at 5 % / remaining activity at 10 %: 20 min, read-out: % Residual enzyme activity", "protocol": "A typical reaction mixture consisted of 1 ml total volume and contained 0.1 mM III, 0.1 μM phthalyl amidase in 50 mM potassium phosphate buffer (pH 5.5-9.0) at 32° C. for 20 minutes. The reactions were stopped by the addition of 1 ml methanol. After removal of precipitate by centrifugation, an aliquot of the supernatant fraction (typically 30 μ) was monitored for the beta-lactam nucleus and phthalic acid by HPLC using a Zorbax C8 column (0.46×15 cm; MacMod Analytical Inc., Chadds Ford, Pa.). The two reaction products were eluted by a mobile phase constructed as continuous mixed gradients from (a) 1% ACN (acetonitrile)/0.2% TFA (trifluoroacetic acid) and (b) 80% ACN/0.2% TFA as follows: 1) 0% (b), 3 min; 2) 0-50% (b), 0.5 min; 3) 50-100% (b), 3 min; 4) 100% (b), 2.5 min; 5) 100-0% (b), 0.1 min; and 6) 0% (b), 5 min.\nThe effect of various agents on the enzymatic activity of phthalyl amidase was determined using standard conditions (see Example 5). All agents were tested at 1 mM final concentration unless otherwise indicated.", "key": {"[1]": {"conditions": "agent at 1 mM final concentration, read-out: % of Control Activity"}, "[2]": {"conditions": "agent at 1 mM final concentration"}, "[3]": {"conditions": "read-out: % of Control Activity"}}, "note": "Entries after “also recorded” stand apart in the source; their conditions may differ. Read-outs that look alike come from different tables or passages of the source.", "data": [{"smiles": "O[C@H](CS)[C@H](O)CS", "note": "(racemic) [DTT, dithiothreitol]", "values": [{"measurement": "remaining activity at 1000 µM", "setting": "[1]", "result": 100, "unit": "%"}]}, {"smiles": "Nc1ncnc2c1ncn2[C@@H]1O[C@H](COP(=O)(O)OP(=O)(O)OP(=O)(O)O)[C@@H](O)[C@H]1O", "note": "[ATP, adenosine 5triphosphate]", "values": [{"measurement": "remaining activity at 1000 µM", "setting": "[1]", "result": 96, "unit": "%"}]}, {"smiles": "[Ca+2].[Cl-].[Cl-]", "note": "[CaCl2]", "values": [{"measurement": "% of Control Activity", "setting": "[2]", "result": 89, "unit": "%"}]}, {"smiles": "CC(C)(COP(=O)(O)OP(=O)(O)OC[C@H]1O[C@@H](n2cnc3c(N)ncnc32)[C@H](O)[C@@H]1OP(=O)(O)O)[C@@H](O)C(=O)NCCC(=O)NCCS", "note": "[CoASH]", "values": [{"measurement": "remaining activity at 1000 µM", "setting": "[1]", "result": 102, "unit": "%"}]}, {"smiles": "[Cl][Cu][Cl]", "note": "[CuCl2]", "values": [{"measurement": "effect on enzyme activity (in words)", "setting": "1 mM unless otherwise indicated, iodoacetic acid 10 mM, listed as Cu^++", "result": "significantly inhibited"}, {"measurement": "effect on enzyme activity (in words)", "setting": "1 mM unless otherwise indicated, iodoacetic acid 10 mM, listed as copper ions", "result": "significantly reduced"}, {"measurement": "% of Control Activity", "setting": "[2]", "result": 36, "unit": "%"}]}, {"smiles": "C[S+](C)[O-]", "note": "[DMSO, dimethyl sulfoxide]", "values": [{"measurement": "remaining activity at 1 %", "setting": "solvent 1.0%", "result": 101, "unit": "%"}, {"measurement": "remaining activity at 5 %", "setting": "solvent 5.0%", "result": 80, "unit": "%"}, {"measurement": "remaining activity at 10 %", "setting": "solvent 10.0%", "result": 71, "unit": "%"}]}, {"smiles": "O=C(O)c1cc(SSc2ccc([N+](=O)[O-])c(C(=O)O)c2)ccc1[N+](=O)[O-]", "note": "[DTNB, dithionitrobenzoate]", "values": [{"measurement": "remaining activity at 1000 µM", "setting": "[1]", "result": 98, "unit": "%"}]}, {"smiles": "O=C(O)CN(CCN(CC(=O)O)CC(=O)O)CC(=O)O", "note": "[EDTA]", "values": [{"measurement": "effect on enzyme activity (in words)", "result": "little or no effect"}, {"measurement": "remaining activity at 1000 µM", "setting": "[3]", "result": 103, "unit": "%"}]}, {"smiles": "CCO", "note": "[Ethanol]", "values": [{"measurement": "remaining activity at 1 %", "result": 99, "unit": "%"}, {"measurement": "remaining activity at 5 %", "result": 85, "unit": "%"}, {"measurement": "remaining activity at 10 %", "result": 45, "unit": "%"}]}, {"smiles": "Cc1cc2nc3c(=O)[nH]c(=O)nc-3n(C[C@H](O)[C@H](O)[C@H](O)COP(=O)(O)OP(=O)(O)OC[C@H]3O[C@@H](n4cnc5c(N)ncnc54)[C@H](O)[C@@H]3O)c2cc1C", "note": "[FAD, flavin adenine dinucleotide]", "values": [{"measurement": "remaining activity at 1000 µM", "setting": "[1]", "result": 101, "unit": "%"}]}, {"smiles": "[Cl][Fe]([Cl])[Cl]", "note": "[FeCl3]", "values": [{"measurement": "% of Control Activity", "setting": "[2]", "result": 96, "unit": "%"}]}, {"smiles": "OCC(O)CO", "note": "[Glycerol]", "values": [{"measurement": "remaining activity at 1 %", "setting": "solvent 1.0%", "result": 100, "unit": "%"}, {"measurement": "remaining activity at 5 %", "setting": "solvent 5.0%", "result": 94, "unit": "%"}, {"measurement": "remaining activity at 10 %", "setting": "solvent 10.0%", "result": 85, "unit": "%"}, {"measurement": "% Residual enzyme activity", "setting": "solvent 10.0%", "result": "least amount of inhibition"}]}, {"smiles": "O=C(O)CI", "note": "[Iodoacetate]", "values": [{"measurement": "effect on enzyme activity (in words)", "result": "significantly reduced; also recorded: significantly inhibited"}, {"measurement": "remaining activity at 1000 µM", "setting": "[3]", "result": 91, "unit": "%"}, {"measurement": "remaining activity at 10000 µM", "setting": "[3]", "result": 46, "unit": "%"}]}, {"smiles": "[Cl-].[K+]", "note": "[KCl]", "values": [{"measurement": "% of Control Activity", "setting": "[2]", "result": 100, "unit": "%"}]}, {"smiles": "OCCS", "note": "[Mercaptoethanol]", "values": [{"measurement": "remaining activity at 1000 µM", "setting": "[1]", "result": 105, "unit": "%"}]}, {"smiles": "CO", "note": "[Methanol]", "values": [{"measurement": "remaining activity at 1 %", "setting": "solvent 1.0%", "result": 100, "unit": "%"}, {"measurement": "remaining activity at 5 %", "setting": "solvent 5.0%", "result": 90, "unit": "%"}, {"measurement": "remaining activity at 10 %", "setting": "solvent 10.0%", "result": 69, "unit": "%"}]}, {"smiles": "[Cl][Mn][Cl]", "note": "[MnCl2]", "values": [{"measurement": "% of Control Activity", "setting": "[2]", "result": 84, "unit": "%"}]}, {"smiles": "NC(=O)c1ccc[n+]([C@@H]2O[C@H](COP(=O)([O-])OP(=O)(O)OC[C@H]3O[C@@H](n4cnc5c(N)ncnc54)[C@H](O)[C@@H]3O)[C@@H](O)[C@H]2O)c1", "note": "[NAD, nicotinamide adenine nucleotide]", "values": [{"measurement": "remaining activity at 1000 µM", "setting": "[1]", "result": 101, "unit": "%"}]}, {"smiles": "NC(=O)C1=CN([C@@H]2O[C@H](COP(=O)(O)OP(=O)(O)OC[C@H]3O[C@@H](n4cnc5c(N)ncnc54)[C@H](O)[C@@H]3O)[C@@H](O)[C@H]2O)C=CC1", "note": "[NADH]", "values": [{"measurement": "remaining activity at 1000 µM", "setting": "[1]", "result": 96, "unit": "%"}]}, {"smiles": "NC(=O)c1ccc[n+]([C@@H]2O[C@H](COP(=O)([O-])OP(=O)(O)OC[C@H]3O[C@@H](n4cnc5c(N)ncnc54)[C@H](OP(=O)(O)O)[C@@H]3O)[C@@H](O)[C@H]2O)c1", "note": "[NADP, nicotinamide adenine dinucleotide phosphate]", "values": [{"measurement": "remaining activity at 1000 µM", "setting": "[1]", "result": 99, "unit": "%"}]}, {"smiles": "NC(=O)C1=CN([C@@H]2O[C@H](COP(=O)(O)OP(=O)(O)OC[C@H]3O[C@@H](n4cnc5c(N)ncnc54)[C@H](OP(=O)(O)O)[C@@H]3O)[C@@H](O)[C@H]2O)C=CC1", "note": "[NADPH]", "values": [{"measurement": "remaining activity at 1000 µM", "setting": "[1]", "result": 99, "unit": "%"}]}, {"smiles": "CCN1C(=O)C=CC1=O", "note": "[NEM, Nethylmaleimide]", "values": [{"measurement": "remaining activity at 1000 µM", "setting": "[1]", "result": 100, "unit": "%"}]}, {"smiles": "[Cl][Ni][Cl]", "note": "[NiCl2]", "values": [{"measurement": "% of Control Activity", "setting": "[2]", "result": 94, "unit": "%"}]}, {"smiles": "Cc1ncc(COP(=O)(O)O)c(C=O)c1O", "note": "[PLP, pyridoxyl5-phosphate]", "values": [{"measurement": "remaining activity at 1000 µM", "setting": "[1]", "result": 106, "unit": "%"}]}, {"smiles": "c1cnc2c(c1)ccc1cccnc12", "note": "[Phenanthroline]", "values": [{"measurement": "effect on enzyme activity (in words)", "setting": "1 mM unless otherwise indicated, iodoacetic acid 10 mM", "result": "little or no effect"}, {"measurement": "remaining activity at 1000 µM", "setting": "[1]", "result": 104, "unit": "%"}]}, {"smiles": "Nc1nc2c(c(=O)[nH]1)N[C@H](CNc1ccc(C(=O)N[C@@H](CCC(=O)O)C(=O)O)cc1)CN2", "note": "[THF, tetrahydrofolate]", "values": [{"measurement": "remaining activity at 1000 µM", "setting": "[1]", "result": 100, "unit": "%"}]}, {"smiles": "[Cl-].[Cl-].[Zn+2]", "note": "[ZnCl2]", "values": [{"measurement": "% of Control Activity", "setting": "[2]", "result": 100, "unit": "%"}]}]}
